Test results as given in patent publication US20130216552A1, “CRTH2 MODULATORS” (Ironwood Pharmaceuticals, Inc., priority 2010, published 2013).

Assays:
[1] = molecular target: T1, CRTH2 (Homo sapiens, UniProt Q9Y5Y4); assay: DPBS CD11b Antagonist Assay; type: cell-based; conditions: polymorphonuclear cells in PBS with CaCl2/MgCl2; CD11b expression in eosinophils; agonist 15R-Methyl-PGD2 (10 nM)
T1 construct: polymorphonuclear cells (0.5 ml; 10^6/ml cells) in PBS containing 0.9 mM CaCl2 and 0.5 mM MgCl2; endogenous in cells; host or cells: polymorphonuclear cells (eosinophils gated by flow cytometry)
T1 sequence (Q9Y5Y4 1-395): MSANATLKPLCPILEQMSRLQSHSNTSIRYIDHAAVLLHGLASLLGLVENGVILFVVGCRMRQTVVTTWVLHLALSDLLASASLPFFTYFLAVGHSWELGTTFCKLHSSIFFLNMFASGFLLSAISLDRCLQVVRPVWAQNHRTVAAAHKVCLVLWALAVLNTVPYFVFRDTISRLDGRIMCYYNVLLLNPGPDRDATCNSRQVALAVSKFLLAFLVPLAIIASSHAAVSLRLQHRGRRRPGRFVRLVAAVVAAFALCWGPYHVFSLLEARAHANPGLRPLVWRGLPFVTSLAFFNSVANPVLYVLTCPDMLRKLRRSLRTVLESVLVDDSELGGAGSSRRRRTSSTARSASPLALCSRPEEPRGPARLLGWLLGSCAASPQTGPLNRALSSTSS
Method: DPBS CD11b Antagonist Assay
The potential CRTH2 antagonist activity of certain compounds was tested using a CD11b expression assay using essentially the method described by Monneret et al. (J Pharmacol Exp Ther 304:349-55, 2003). Briefly, polymorphonuclear cells (0.5 ml; 10^6/ml cells) in PBS containing 0.9 mM CaCl2 and 0.5 mM MgCl2) were preincubated with various concentrations of test compounds at room temperature for 10 minutes before they were challenged with the agonist 15R-Methyl-PGD2 (10 nM). The incubations were terminated by the addition of ice-cold FACSFlow (BD Biosciences; Cat#342003) and centrifugation (400 g for 5 minutes at 4° C.). The cells were then incubated for 30 minutes at 4° C. with a mixture of PE-labeled mouse anti-human VLA-4 (5 μl; BD Biosciences) and FITC-labeled mouse anti-human CD11b (10 μl; Beckman Coulter). The cells were then incubated with Optilyse C (0.25 ml; Beckman Coulter) for 15 minutes, centrifuged, and then fixed in PBS (0.4 ml; calcium and magnesium free) containing 1% formaldehyde. The distribution of fluorescence intensities among 60,000 cells was measured by flow cytometry. Eosinophils were gated out on the basis of their granularity (high side scatter) and labeling with VLA-4 (PE fluorescence). CD11b was then measured in the eosinophil region on the basis of fluorescence due to FITC. All data were corrected for the value obtained for the corresponding isotope control antibody.

[2] = molecular target: T1, CRTH2; assay: Human Whole Blood CD11b Antagonist Assay; type: cell-based; conditions: CD11b expression in eosinophils, agonist 15R-Methyl-PGD2 (10 nM)
Method: Human Whole Blood CD11b Antagonist Assay (Modified from Nicholson, et al. Pulmonary Pharmacology and Therapeutics: 20 (2007); 52-59)
The potential CRTH2 antagonist activity of certain compounds was tested in human whole blood using an assay that tests the ability of the compounds to block the CD11b expression in eosinophils by 15-R-methyl-PGD2. A CRTH2 antagonist should block CD11b expression by subsequently added 15-Methyl-PGD2. Human whole blood ([…]) was incubated at 37° C. for 10 minutes in the presence of various concentrations of test compounds before being challenged with the agonist 15R-Methyl-PGD2 (10 nM). Reactions were terminated by the addition of ice-cold PBS+0.5% BSA+2 mM EDTA (1 mL) and centrifugation (300×g for 5 minutes at 4° C.) Cells were then incubated at 4° C. for 10 min in the presence of human IgG. Cells were then incubated for 30-45 min with a mixture of PE-Cy5-labeled mouse anti-human CD16 (10 ul; BD Biosciences) and FITC-labeled mouse anti-human CD11b (10 μL; Beckman Coulter.) After rinsing (1 mL ice-cold PBS+0.5% BSA+2 mM EDTA), red blood cells were lysed by the addition of 1 mL ice-cold H2O to the cell pellet for 30 sec-1 min immediately followed by the addition of 3.5% NaCl (300 μL.) Cells were then rinsed (2×−1 ml ice cold PBS+0.5% BSA+2 m MEDTA) and fixed in PBS containing 1% formaldehyde. The distribution of fluorescence intensities was measured by flow cytometry. Eosinophils were gated out on the basis of their granularity (high side scatter) and absence of CD-16. CD11b was then measured on this eosinophil population on the basis of fluorescence due to FITC.

Compound	IC50 [1]	IC50 [2]
Cc1c(Cc2ccccc2S(=O)(=O)N2CCCC2)c2sccc2n1CC(=O)O [Compound I-4, 2-(5-Methyl-6-(2-(pyrrolidin-1-ylsulfonyl)benzyl)-4H-thieno[3,2-b]pyrrol-4-yl)acetic acid]	1 to 5 nM	20 to 100 nM
Cc1c(Cc2ccccc2S(=O)(=O)N2CCOCC2)c2ccsc2n1CC(=O)O [Compound I-6, 2-(5-Methyl-4-(2-(morpholinosulfonyl)benzyl)-6H-thieno[2,3-b]pyrrol-6-yl)acetic acid]	< 1 nM	5 to 20 nM
Cc1c(Cc2ccccc2S(=O)(=O)c2ccccc2)c2ccsc2n1CC(=O)O [Compound I-3, 2-(5-Methyl-4-(2-(phenylsulfonyl)benzyl)-6H-thieno[2,3-b]pyrrol-6-yl)acetic acid]	< 1 nM	5 to 20 nM
Cc1c(Cc2ccccc2S(=O)(=O)N2CCCC2)c2ccsc2n1CC(=O)O [Compound I-1, 2-(5-Methyl-4-(2-(pyrrolidin-1-ylsulfonyl)benzyl)-6H-thieno[2,3-b]pyrrol-6-yl)acetic acid]	< 1 nM	20 to 100 nM

The remaining lines, values ahead:

IC50 [1]	IC50 [2]	Compound
100 to 500 nM		Cc1c(Cc2ccccc2S(=O)(=O)N2CCCC2)c2scnc2n1CC(=O)O [Compound I-2, 2-(5-Methyl-6-(2-(pyrrolidin-1-ylsulfonyl)benzyl)-4H-pyrrolo[2,3-d]thiazol-4-yl)acetic acid]
3000 to 5000 nM	3000 to 5000 nM	Cc1c(Cc2ccccc2S(=O)(=O)N2CCOCC2)c2scnc2n1CC(=O)O [Compound I-5, 2-(5-Methyl-6-(2-(morpholinosulfonyl)benzyl)-4H-pyrrolo[2,3-d]thiazol-4-yl)acetic acid]
